# Results from publication PMC12445744, “Molecular docking to homology models of human and Trypanosoma brucei ERK8 that identified ortholog-specific inhibitors” (PLOS Neglected Tropical Diseases, 2025).
# “And” between values parts separate entries of the source, which are not always exact repeats. Identical values can stand only once.
# Target: T1, TbERK8 (Trypanosoma brucei brucei, UniProt Q38B88)
# T1 sequence (Q38B88 1-442): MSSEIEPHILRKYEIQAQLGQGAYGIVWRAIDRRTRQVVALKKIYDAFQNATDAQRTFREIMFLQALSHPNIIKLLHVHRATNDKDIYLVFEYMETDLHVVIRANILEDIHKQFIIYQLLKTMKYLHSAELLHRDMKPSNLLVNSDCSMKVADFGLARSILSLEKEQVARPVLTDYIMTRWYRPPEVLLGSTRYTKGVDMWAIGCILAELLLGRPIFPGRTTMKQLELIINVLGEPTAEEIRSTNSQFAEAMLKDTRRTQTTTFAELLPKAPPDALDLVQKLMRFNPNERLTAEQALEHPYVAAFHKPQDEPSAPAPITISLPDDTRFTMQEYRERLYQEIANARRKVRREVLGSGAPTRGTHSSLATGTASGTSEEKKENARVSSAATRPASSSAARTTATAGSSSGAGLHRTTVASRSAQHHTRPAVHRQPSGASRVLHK
# Experiment: Luciferase-based kinase inhibition assay (ATP luminescence), GST-tagged TbERK8 with MBP substrate
# Type: biochemical
# Design: raw luminescence, TbERK8: unit of the concentration uncertain
# Conditions: for raw luminescence, TbERK8: replicate wells; for raw luminescence, TbERK8 / Luminescence Raw (Kinase-Glo): listed as Sil; for Luminescence Raw (Kinase-Glo): TbERK8
smiles,measurement,setting,value
CCCc1nn(C)c2c(=O)[nH]c(-c3cc(S(=O)(=O)N4CCN(C)CC4)ccc3OCC)nc12 [Sildenafil],IC50,,9 mM
same,"raw luminescence, TbERK8","0.00015 (unit uncertain) compound, sheet ADP_ATP_glo081724 (3)",192.26 RLU and 196.784 RLU and 144.761 RLU
same,"raw luminescence, TbERK8","0.00015 (unit uncertain) compound, sheet Kinase_glo 08142024 (2)",642.503 RLU and 676.319 RLU and 570.644 RLU
same,"raw luminescence, TbERK8","0.00015 (unit uncertain) compound, sheet Kinase_glo_080924_IFPS (2)",1471.05 RLU and 1414.9 RLU and 1313.84 RLU
same,"raw luminescence, TbERK8","0.00061 (unit uncertain) compound, sheet ADP_ATP_glo081724 (3)",122.142 RLU and 174.165 RLU and 104.047 RLU
same,"raw luminescence, TbERK8","0.00061 (unit uncertain) compound, sheet Kinase_glo 08142024 (2)",718.589 RLU and 748.177 RLU and 712.248 RLU
same,"raw luminescence, TbERK8","0.00061 (unit uncertain) compound, sheet Kinase_glo_080924_IFPS (2)",788.303 RLU and 923.056 RLU and 783.811 RLU
same,"raw luminescence, TbERK8","0.00244 (unit uncertain) compound, sheet ADP_ATP_glo081724 (3)",246.545 RLU and 205.831 RLU and 226.188 RLU
same,"raw luminescence, TbERK8","0.00244 (unit uncertain) compound, sheet Kinase_glo 08142024 (2)",701.681 RLU and 748.177 RLU and 629.822 RLU
same,"raw luminescence, TbERK8","0.00244 (unit uncertain) compound, sheet Kinase_glo_080924_IFPS (2)",458.159 RLU and 390.783 RLU and 375.062 RLU
same,"raw luminescence, TbERK8","0.00977 (unit uncertain) compound, sheet ADP_ATP_glo081724 (3)",235.236 RLU and 187.736 RLU and 135.713 RLU
same,"raw luminescence, TbERK8","0.00977 (unit uncertain) compound, sheet Kinase_glo 08142024 (2)",820.036 RLU and 841.171 RLU and 775.653 RLU
same,"raw luminescence, TbERK8","0.00977 (unit uncertain) compound, sheet Kinase_glo_080924_IFPS (2)",660.288 RLU and 590.666 RLU and 547.994 RLU
same,"raw luminescence, TbERK8","0.03906 (unit uncertain) compound, sheet ADP_ATP_glo081724 (3)",210.355 RLU and 205.831 RLU and 187.736 RLU
same,"raw luminescence, TbERK8","0.03906 (unit uncertain) compound, sheet Kinase_glo 08142024 (2)",526.26 RLU and 661.524 RLU and 672.092 RLU
same,"raw luminescence, TbERK8","0.03906 (unit uncertain) compound, sheet Kinase_glo_080924_IFPS (2)",981.449 RLU and 954.498 RLU and 819.745 RLU
same,"raw luminescence, TbERK8","0.15625 (unit uncertain) compound, sheet ADP_ATP_glo081724 (3)",341.544 RLU and 352.854 RLU and 287.259 RLU
same,"raw luminescence, TbERK8","0.15625 (unit uncertain) compound, sheet Kinase_glo 08142024 (2)",849.625 RLU and 830.604 RLU and 743.951 RLU
same,"raw luminescence, TbERK8","0.15625 (unit uncertain) compound, sheet Kinase_glo_080924_IFPS (2)",1302.61 RLU and 956.744 RLU and 1116.2 RLU
same,"raw luminescence, TbERK8","0.62500 (unit uncertain) compound, sheet ADP_ATP_glo081724 (3)",653.684 RLU and 678.565 RLU and 508.924 RLU
same,"raw luminescence, TbERK8","0.62500 (unit uncertain) compound, sheet Kinase_glo 08142024 (2)",1502.69 RLU and 1635.85 RLU and 1447.74 RLU
same,"raw luminescence, TbERK8","0.62500 (unit uncertain) compound, sheet Kinase_glo_080924_IFPS (2)",10771.2 RLU and 11665.1 RLU and 9012.71 RLU
same,"raw luminescence, TbERK8","2.50000 (unit uncertain) compound, sheet ADP_ATP_glo081724 (3)",9775.86 RLU and 9642.41 RLU and 4501.15 RLU
same,"raw luminescence, TbERK8","2.50000 (unit uncertain) compound, sheet Kinase_glo 08142024 (2)",30745 RLU and 32114.6 RLU and 32366.1 RLU
same,"raw luminescence, TbERK8","2.50000 (unit uncertain) compound, sheet Kinase_glo_080924_IFPS (2)",19880.5 RLU and 19849.1 RLU and 15795.3 RLU
same,"raw luminescence, TbERK8","10.00000 (unit uncertain) compound, sheet ADP_ATP_glo081724 (3)",17380.3 RLU and 17721.9 RLU and 17968.4 RLU
same,"raw luminescence, TbERK8","10.00000 (unit uncertain) compound, sheet Kinase_glo 08142024 (2)",40177.6 RLU (2×) and 40048.6 RLU
same,"raw luminescence, TbERK8","10.00000 (unit uncertain) compound, sheet Kinase_glo_080924_IFPS (2), signal = ATP left",19548.1 RLU and 21185.4 RLU and 21443.6 RLU
same,Luminescence Raw (Kinase-Glo),"inhibitor 0.00976562 mM, sheet Sil_Pred3, read 3",36049.4 and 37274.6 and 36862.3
same,Luminescence Raw (Kinase-Glo),"inhibitor 0.0195312 mM, sheet Sil_Pred3, read 3",31279.7 and 32797.7 and 32247.2
same,Luminescence Raw (Kinase-Glo),"inhibitor 0.0390625 mM, sheet Sil_Pred3, read 3",27320.5 and 29281.3 and 28655.8
same,Luminescence Raw (Kinase-Glo),"inhibitor 0.078125 mM, sheet Sil_Pred3, read 3",38799.7 and 40144.4 and 45260.9
same,Luminescence Raw (Kinase-Glo),"inhibitor 0.15625 mM, sheet Sil_Pred3, read 3",29028.3 and 32258.9 and 32301.1
same,Luminescence Raw (Kinase-Glo),"inhibitor 0.3125 mM, sheet Sil_Pred3, read 3",27939 and 30286.4 and 29686.6
same,Luminescence Raw (Kinase-Glo),"inhibitor 0.625 mM, sheet Sil_Pred3, read 3",36091.6 and 38406.1 and 37640.1
same,Luminescence Raw (Kinase-Glo),"inhibitor 0.00976562, sheet Sil_Pred1, read 1",40167.3 and 42010.2 and 38672.9
same,Luminescence Raw (Kinase-Glo),"inhibitor 0.00976562, sheet Sil_Pred2, read 2",37219 and 38747.1 and 37019
same,Luminescence Raw (Kinase-Glo),"inhibitor 0.0195312, sheet Sil_Pred1, read 1",34760.2 and 36412.8 and 34705.2
same,Luminescence Raw (Kinase-Glo),"inhibitor 0.0195312, sheet Sil_Pred2, read 2",32386.1 and 33904.8 and 32825.7
same,Luminescence Raw (Kinase-Glo),"inhibitor 0.0390625, sheet Sil_Pred1, read 1",30029.2 and 32598.7 and 32204.5
same,Luminescence Raw (Kinase-Glo),"inhibitor 0.0390625, sheet Sil_Pred2, read 2",28304.4 and 29974.3 and 30192.9
same,Luminescence Raw (Kinase-Glo),"inhibitor 0.078125, sheet Sil_Pred1, read 1",43786.6 and 44925.8 and 48645.9
same,Luminescence Raw (Kinase-Glo),"inhibitor 0.078125, sheet Sil_Pred2, read 2",39158.7 and 41749.6 and 45619.7
same,Luminescence Raw (Kinase-Glo),"inhibitor 0.15625, sheet Sil_Pred1, read 1",32447.4 and 35952.1 and 35828.3
same,Luminescence Raw (Kinase-Glo),"inhibitor 0.15625, sheet Sil_Pred2, read 2",29879 and 33446.7 and 32672.2
same,Luminescence Raw (Kinase-Glo),"inhibitor 0.3125, sheet Sil_Pred1, read 1",31858.4 and 33536.2 and 32552.9
same,Luminescence Raw (Kinase-Glo),"inhibitor 0.3125, sheet Sil_Pred2, read 2",29706.8 and 31355.8 and 30890.7
same,Luminescence Raw (Kinase-Glo),"inhibitor 0.625, sheet Sil_Pred1, read 1",41361.5 and 43495.5 and 43241.1
same,Luminescence Raw (Kinase-Glo),"inhibitor 0.625, sheet Sil_Pred2, read 2",37112 and 39789 and 39512.2
